The target in assay [1] is T1, human TLR7 (Homo sapiens, UniProt Q9NYK1).
T1 construct: expresses full-length human TLR7 and secretory alkaline phosphatase (SEAP) reporter gene; host or cells: HEK293 (TLR7/NF-κB/SEAPorter)
T1 sequence (Q9NYK1 27-1049): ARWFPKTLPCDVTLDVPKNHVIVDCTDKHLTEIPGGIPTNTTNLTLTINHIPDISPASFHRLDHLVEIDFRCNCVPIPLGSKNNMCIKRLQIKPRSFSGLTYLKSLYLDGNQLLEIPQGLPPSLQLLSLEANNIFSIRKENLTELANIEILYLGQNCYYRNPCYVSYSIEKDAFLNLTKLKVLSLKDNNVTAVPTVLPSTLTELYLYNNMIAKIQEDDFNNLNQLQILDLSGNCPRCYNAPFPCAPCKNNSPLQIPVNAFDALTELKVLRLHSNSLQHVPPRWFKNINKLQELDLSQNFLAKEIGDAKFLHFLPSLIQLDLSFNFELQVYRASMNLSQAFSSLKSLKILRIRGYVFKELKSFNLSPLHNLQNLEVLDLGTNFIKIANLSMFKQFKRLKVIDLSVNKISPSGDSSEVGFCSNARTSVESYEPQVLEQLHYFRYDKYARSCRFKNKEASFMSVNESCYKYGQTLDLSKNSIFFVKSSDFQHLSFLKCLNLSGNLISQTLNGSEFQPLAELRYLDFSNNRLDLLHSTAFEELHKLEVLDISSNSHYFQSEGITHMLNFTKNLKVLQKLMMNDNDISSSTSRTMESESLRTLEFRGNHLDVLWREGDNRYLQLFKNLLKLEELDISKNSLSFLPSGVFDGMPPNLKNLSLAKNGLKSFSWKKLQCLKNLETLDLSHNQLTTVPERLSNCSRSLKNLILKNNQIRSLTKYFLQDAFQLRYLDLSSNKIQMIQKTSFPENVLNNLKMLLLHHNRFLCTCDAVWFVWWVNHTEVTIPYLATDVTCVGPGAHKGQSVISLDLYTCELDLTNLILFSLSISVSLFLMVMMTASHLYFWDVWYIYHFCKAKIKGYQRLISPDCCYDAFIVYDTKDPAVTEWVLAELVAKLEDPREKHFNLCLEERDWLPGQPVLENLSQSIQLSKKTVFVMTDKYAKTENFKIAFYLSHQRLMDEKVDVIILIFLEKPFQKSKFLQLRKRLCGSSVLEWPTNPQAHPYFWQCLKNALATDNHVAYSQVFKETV
Description: Human TLR7 reporter gene assay (HEK-Blue hTLR7 cell line), Test 22. It is filed as cell-based. The conditions noted are these: method of Test 1. An excerpt: (§1) TLR7/NF-κB/SEAPorter™ HEK293 cell line (Imgenex Corporation) is a stably co-transfected cell line which expresses full-length human TLR7 and secretory alkaline phosphatase (SEAP) reporter gene under the transcriptional regulation of an NF-κB response element. The TLR7 expression of the cell line has been already tested by flow cytometry. Transfectants with stable expression were selected using the antibiotic blasticidin and Geneticin. TLR signaling leads to the translocation of NF-κB and the activation of the promoter results in expression of the SEAP gene. TLR7-specific activation was assessed by determining the level of SEAP produced following 24-hour incubation of the cells at 37° C. with each compound prepared in Examples and Reference examples in the presence of 0.1% (v/v) dimethylsulfoxide (DMSO). The human TLR7 activity for the present compound was assessed by human TLR7 reporter gene assay, and the results are shown in Tables 3 and 4 as the compound concentration which produced half of the maximal level of SEAP induction (EC50)
According to the method of Test 1, human TLR7 reporter gene assay was done with the following samples, and the result was shown in the table below. The cell used herein was HEK-Blue™ hTLR7 cell line (Invivogen). HEK-Blue™ hTLR7 cell line is a stably co-transfected cell line which expresses full-length human TLR7 and secretory SEAP reporter gene under the transcriptional regulation of an NF-κB response element. The TLR7 expression of the cell line has been already tested by RT-PCR. Transfectants with stable expression were selected using the antibiotic blasticidin and Zeocin.
In general terms: A reporter such as luciferase makes a cellular process visible.

For assay [2], the target named is T1, human TLR7. Briefly: Human TLR7 reporter gene assay (TLR7/NF-κB/SEAPorter HEK293 cell line), Tests 1 and 21. It is filed as cell-based. The conditions noted are these: Test 21; according to the method of Test 1; read-out: human EC50.
From the text: Human TLR7 Reporter Gene Assay
as §1
According to the method of Test 1, human TLR7 reporter gene assay was done with the following samples, and the result was shown in the table below.

Assay [3] concerns HLA-A*02:01 transgenic mouse. Briefly: Test 10: in vivo adjuvant activity, cocktail vaccine b, IFNγ ELISPOT. To be noted: added to cocktail vaccine b; 0.4 nmol per body, twice; FIG. 8 and 9. The procedure: Evaluation of In Vivo Adjuvant Activity in HLA-A*02:01 Transgenic Mouse
The in vivo adjuvant activity of the compound of Example 11 was evaluated in the following procedure. To cocktail vaccine b like Test 9 was added the compound prepared in Example 11 to prepare a vaccine. The vaccine was administered to a HLA-A*02:01 transgenic mouse, and the adjuvant activity of the vaccine was evaluated by the method of testing antigen-specific CTL induction.
Specifically, Compound of formula 4 and Peptide SEQ ID No. 3 were dissolved in DMSO, and then diluted with water for injection to concentrations of Compound of formula 4 of 3 mg/mL and Peptide SEQ ID No. 3 of 2.25 mg/mL. The diluted peptide solution was mixed and emulsified with an equal volume of Montanide ISA 51 VG to prepare cocktail vaccine b. Cocktail vaccine b was injected to mice intradermally at the tail base area in an amount for administering 300 μg of Compound of formula 4 per body and 225 μg of Peptide SEQ ID No. 3 per body. […] Then, after removal of the supernatant from the wells, stained spots on the ELISPOT plate were counted.

Results on 4 compounds are retold here after US12427192B2, “Water soluble adjuvant and composition containing same” (Sumitomo Pharma Co., Ltd., priority 2019, dated 2025).

Take `CCC[C@@H](CO)Nc1nc(N)nc(C)c1Cc1ccc(C(=O)NCCOCCOCCOCCOCCOCCOCCO)cc1OC` [Example 5, 4-[(2-amino-4-{[(2S)-1-hydroxypentan-2-yl]amino}-6-methylpyrimidin-5-1)methyl]-N-(20-hydroxy-3,6,9,12,15,18-hexaoxaicosan-1-yl)-3-methoxybenzamide]: it took 7270 nM to reach a half-maximal effect on human TLR7 [1] (EC50).
For the compound `CCC[C@@H](CO)Nc1nc(N)nc(C)c1Cc1ccc(C(=O)OCCOCCOCCOCCOC)cc1OC` [Example 6, 2,5,8,11-tetraoxatridecan-13-yl 4-[(2-amino-4-{[(2S)-1-hydroxypentan-2-yl]amino}-6-methylpyrimidin-5-yl)methyl]-3-methoxybenzoate], the response at human TLR7 [1] was half-maximal at 119 nM (EC50).
Consider `CCCCCNc1nc(N)nc(C)c1Cc1ccc(COCCOCCOCCOCCOC)cc1OC` [Example 7, 5-{[2-methoxy-4-(2,5,8,11,14-pentaoxapentadecan-1-yl)phenyl]methyl}-6-methyl-N^4-pentylpyrimidine-2,4-diamine], for which the EC50 at human TLR7 [1] was determined as 71 nM.
As for `CCCCCNc1nc(N)nc(C)c1Cc1ccc(CN(CCOCCOCCOCCO)CCOCCOCCOCCO)cc1OC` [Example 11, 12-[(4-{[2-amino-4-methyl-6-(pentylamino)pyrimidin-5-yl]methyl}-3-methoxyphenyl)methyl]-3,6,9,15,18,21-hexaoxa-12-azatricosan-1,23-diol], the EC50 at human TLR7 [2] was found to be 774 nM. The “CTL counts responsive to Peptide SEQ ID No. 1 or SEQ ID No. 4 compared with adding no compound” value in assay [3] is recorded as “more”.

A word on the EC50: it is the concentration at which the effect is half-maximal.
